The test system of data set [1] is cell monolayers on BIOCOAT "3 day" system or polycarbonate filters. The note with it: cited from earlier work.
Data set [2] deals with P-glycoprotein (Homo sapiens, UniProt P08183). The note with it: 6 well Biocoat inserts; without verapamil. The protocol:
(§1) Solutions of drug for screening are prepared with Hank's Balanced Salts solution (HBSS) buffered to pH7.4 with HEPES. Up to 1% DMSO may be added to aid solubilisation. These drug solutions are added to either the apical (1.5 ml) or the basolateral (3.0 ml) chambers of a 6 well system, and HBSS at pH7.4 is added to the opposite chamber. 0.5 ml samples are taken at regular time intervals from the receiver chamber and the volume replaced with fresh pre-warmed HBSS at pH7.4. A donor sample is taken initially and at the final time point. Samples are analysed using appropriate methods. The volumes are modified accordingly for other plate formats (e.g. 400 μL apical volume, 1 mL basolateral volume for a 24 well plate).

For data set [3], the target named is T1, apical di-peptide transporter (Homo sapiens, UniProt P46059).
T1 construct: show functional expression of the dipeptide carrier and p-glycoprotein; endogenous in cells; host or cells: Caco-2 (ECACC 86010202)
T1 sequence (P46059 1-708): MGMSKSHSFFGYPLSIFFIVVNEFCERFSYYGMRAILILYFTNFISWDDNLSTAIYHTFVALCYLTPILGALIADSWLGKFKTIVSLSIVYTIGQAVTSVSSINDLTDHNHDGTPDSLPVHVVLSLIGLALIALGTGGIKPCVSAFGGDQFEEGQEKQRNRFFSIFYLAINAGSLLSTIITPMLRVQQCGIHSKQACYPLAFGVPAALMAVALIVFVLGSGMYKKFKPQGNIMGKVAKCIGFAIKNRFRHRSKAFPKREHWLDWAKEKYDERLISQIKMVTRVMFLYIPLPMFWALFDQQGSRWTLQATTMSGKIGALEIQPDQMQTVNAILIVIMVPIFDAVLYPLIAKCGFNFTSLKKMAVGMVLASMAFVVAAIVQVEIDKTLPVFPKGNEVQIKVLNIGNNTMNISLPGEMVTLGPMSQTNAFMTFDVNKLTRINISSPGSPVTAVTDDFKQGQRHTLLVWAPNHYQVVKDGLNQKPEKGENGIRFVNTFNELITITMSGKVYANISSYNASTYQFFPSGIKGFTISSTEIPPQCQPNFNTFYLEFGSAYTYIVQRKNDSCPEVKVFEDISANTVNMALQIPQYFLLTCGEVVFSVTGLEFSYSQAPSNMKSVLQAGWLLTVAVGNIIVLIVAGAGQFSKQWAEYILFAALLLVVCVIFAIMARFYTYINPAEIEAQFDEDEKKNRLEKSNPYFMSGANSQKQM
The data set is described as follows: Transport of 14C-Gly-sar across Caco-2 monolayers, A-B and B-A. Format: in vitro ADME. The note with it: pH 6 and 7.4. As for the experimental part:
Samples are analysed using appropriate methods.

Data set [4] is described as follows: in vitro. The note with it: human, Caco-2, pH 7.4. The protocol: (§2) This was carried out with the hydrophilic markers, ^14C-mannitol and Lucifer Yellow.
as §1
(§3) The results are expressed as cumulative amount or percentage transported versus time. An absorption apparent permeability coefficient, Papp, can been calculated where: [formula]
(§4) where dQ/dt is the permeability rate (over the linear portion of the curve), C0 is the initial concentration in the donor chamber and A (cm^2) is the surface area of the filter insert supporting the cell monolayer.

For data set [5], the system named is Caco-2 cell monolayer. The data set is described as follows: in vitro. As for the experimental part: as §2, §1, §3, §4
[6] abbreviates: Polycarbonate (1), Artursson et al 1996, 14C-mannitol.

Where two headings read alike, the source gives them in different places.

Sequence of P-glycoprotein (P08183 whole entry): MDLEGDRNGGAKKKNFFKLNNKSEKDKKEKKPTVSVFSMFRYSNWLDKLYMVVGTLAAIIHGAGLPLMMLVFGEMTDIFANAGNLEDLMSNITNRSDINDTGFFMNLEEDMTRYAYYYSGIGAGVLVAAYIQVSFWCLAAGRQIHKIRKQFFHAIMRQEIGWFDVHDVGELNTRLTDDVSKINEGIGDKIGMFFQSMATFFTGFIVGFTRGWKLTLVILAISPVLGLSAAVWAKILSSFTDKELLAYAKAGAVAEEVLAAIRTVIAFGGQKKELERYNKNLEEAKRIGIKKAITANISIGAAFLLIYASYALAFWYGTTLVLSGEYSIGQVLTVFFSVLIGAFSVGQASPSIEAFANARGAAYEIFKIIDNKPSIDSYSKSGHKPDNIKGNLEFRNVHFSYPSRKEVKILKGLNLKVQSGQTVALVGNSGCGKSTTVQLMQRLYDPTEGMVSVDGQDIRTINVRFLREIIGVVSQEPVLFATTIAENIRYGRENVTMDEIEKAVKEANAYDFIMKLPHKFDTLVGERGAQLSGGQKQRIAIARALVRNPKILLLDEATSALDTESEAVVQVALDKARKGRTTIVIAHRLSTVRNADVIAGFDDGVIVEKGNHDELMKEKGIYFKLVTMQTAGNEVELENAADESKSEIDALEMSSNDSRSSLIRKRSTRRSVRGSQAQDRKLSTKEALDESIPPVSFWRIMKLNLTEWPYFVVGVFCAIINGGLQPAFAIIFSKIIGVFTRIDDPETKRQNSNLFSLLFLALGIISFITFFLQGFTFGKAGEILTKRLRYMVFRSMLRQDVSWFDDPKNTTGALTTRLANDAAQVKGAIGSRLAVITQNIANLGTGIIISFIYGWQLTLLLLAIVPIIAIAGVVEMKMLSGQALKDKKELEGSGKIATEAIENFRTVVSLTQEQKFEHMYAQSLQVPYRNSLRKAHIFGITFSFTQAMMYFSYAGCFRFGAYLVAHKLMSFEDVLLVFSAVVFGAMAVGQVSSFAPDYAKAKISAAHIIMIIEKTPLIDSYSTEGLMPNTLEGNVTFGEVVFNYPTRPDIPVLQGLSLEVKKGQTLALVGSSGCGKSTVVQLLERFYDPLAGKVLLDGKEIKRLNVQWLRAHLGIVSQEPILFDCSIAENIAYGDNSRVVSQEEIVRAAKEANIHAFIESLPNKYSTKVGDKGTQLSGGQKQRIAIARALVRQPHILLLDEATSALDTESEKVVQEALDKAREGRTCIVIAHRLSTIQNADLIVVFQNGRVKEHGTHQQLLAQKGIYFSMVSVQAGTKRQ

For the compound `OC[C@@H](O)[C@@H](O)[C@H](O)[C@H](O)CO` [^3H-Mannitol], in data set [1], the Papp was 0.76 cm.s^−1 × 10^6.

Regarding `CC[C@]1(O)C[C@@H]2CN(CCc3c([nH]c4ccccc34)[C@@](C(=O)OC)(c3cc4c(cc3OC)N(C)[C@H]3[C@@](O)(C(=O)OC)[C@H](OC(C)=O)[C@]5(CC)C=CCN6CC[C@]43[C@@H]65)C2)C1` [^3H-vinblastine], the “transport B to A versus A to B” value in data set [2] is given as “significantly greater B to A transport”.

`CN(CC(=O)O)[14C](=O)CN` [^14C-Gly-sar]: the “transport A-B versus B-A” value in data set [3] (24 well PET inserts) and in data set [3] (collagen coated 6 well Biocoat filters) was “increased transport in the A-B direction” each time.

In data set [4], `OC[C@@H](O)[C@@H](O)[C@H](O)[C@H](O)CO` [^14C-Mannitol, ^14C-mannitol] displayed a Papp at 60 min of around 0.4 ×10⁻⁶ cm/s. In addition, the Papp in data set [5] (Caco-2) was 0.4 cm.s^−1 × 10^6; in data set [1] (BIOCOAT "3 day" system, 14C-mannitol) it was below 4.0 cm.s^−1 × 10^6; in data set [1] (setting [6]) it was 0.1-1.0 cm.s^−1 × 10^6. Moreover, the “% Transported/hour” value in data set [5] (human, Caco-2, 1 h, pH 7.4) is recorded as below 0.5%; in data set [1] (setting [6]), 0.05%; in data set [1] (Polycarbonate (3), Taub 1997, 14C-mannitol), 1.5%. The “Average Mannitol Transported” value in data set [5] (human, Caco-2, 60 min, pH 7.4) is given as 0.36-0.40%.

For the compound Lucifer Yellow, in data set [5] (Caco-2), the “% Transported/hour” value is recorded as 0.13% and the “Average Lucifer Yellow Transported” value amounted to 0.13%. Moreover, the “% Transported/hour” value in data set [1] (Polycarbonate (4), Hidalgo et al 1989, Lucifer Yellow) was 0.11%.

These data come from patent US6511798B1, “Methods for the preparation of cell monolayers” (Zeneca Limited, priority 1998, dated 2003).
